# Source: patent US20120184562A1, “1,6- AND 1,8-NAPHTHYRIDINES” (priority 2011, published 2012)
# Where a name gives a salt, the structure may show the parent alone. Read-outs that look alike come from different tables or passages of the source.
# How the values were obtained:
# Human DYRK1B = target: T1, Human DYRK1B (Homo sapiens, UniProt Q9Y463); assay: DYRK1B Kinase TR-FRET (IMAP-Tb) Assay; assay type: biochemical
# T1 construct: purchased Invitrogen PR8350B (former PV4649)
# Source text: DYRK1B Kinase TR-FRET (IMAP-Tb) Assay The kinase TR-FRET (IMAP-Tb) assay uses a fluorescence labeled substrate peptide in the kinase reaction. Upon phosphorylation by the kinase, phosphopeptide is produced, which will be detected by the binding solution provided in IMAP TR-FRET binding kit. After the completion of the kinase reaction, the reaction will be stopped by adding the binding solution containing terbium tracer. This tracer is immobilized on the surface of the IMAP beads, which also contain metal ions on the beads that bind to the phospho-groups of the products. Thus the phosphorylated product of the reaction can enter into close proximity to the tracer, producing resonance energy transfer. Due to the long lifetime of terbium (Tb) fluorescence the detection can be run in time resolved mode, which virtually eliminates fluorescence interference from assay components or compounds. The TR-FRET signal measurement from this assay, given as an IC50 measurement, is a measure of a test compound's ability to interfere with the phosphorylation of the peptide substrate, that is it inhibits the phosphorylation of the substrate peptide by DYRK1B, and is thus a measure of the test compound's ability to inhibit the activity of DYRK1B. […] Human DYRK1B: from Invitrogen. Part #PR8350B (former PV4649) • 2. Substrate Peptide: in-house synthesized: RRRFRPASPLRGPPK • 3. IMAP TR-FRET IPP Explorer Kit: from Molecular Devices. Part #R8157 • 4. Kinase Assay Buffer (KAB): 10 mM HEPES pH 7.0, 50 mM NaCl, 5 mM MgCl2, 1 mM DTT, 1 mM NaVO4, 200 μg/mL BSA (0.02%) • 5. Assay Plate: Remp polypropylene clear 384-well microplate. Cat#23490-102 • 6. Detection Plate: Costa black 384-well microplate. Cat #3710 Assay Procedure: This assay was performed as follows: • 1. Transfer 1.5 μL of 20× compound solution to each well of an assay plate. • 2. Add to each well 22.5 μL of KAB Buffer. • 3. Add to each well 3 μL of the solution of DYRK1B and ATP. […] Add to each well 3 μL of the substrate peptide. The assay concentration is 1.0 μM • 5. Incubate the assay plates at 37° C. for 60 minutes. • 6. Add 18 μL of Detection Solution (1:800 diluted Progress bead stock, 1:400 diluted Tb stock, 80% Buffer A, and 20% Buffer B) into each well of detection plates. • 7. Transfer 6 μL of assay solution from the assay plate to the detection plate. • 8. Shake detection plates for 30 minutes. • 9. Read plates in Envision with wavelength set at excitation 340 nm for Tb, emission 490 nm, and […] 520 nm. • 10. Calculation: TR-FRET Signal=(Reading at […]/Reading at 490 nM)×2000000
# [1] = system: SW620 human colon cancer cells; assay: SW620 Cell Viability Assay; assay type: cell-based; conditions: SW-620, 96 h, 4 days incubation, CellTiter-Glo Luminescent Cell Viability Assay, read-out: Cellular EC50 (μM) SW620
# Procedure: SW620 Cell Viability Assay
# 1. Cell Plate Preparation: SW620 human colon cancer cells (known to express DYRK1B), obtained from ATCC, were seeded into 96-well plates at 3×10^3 cells/well in 50 μL of media. • Harvested the required number of cells (counts & viability determined by Guava Viacount). • Centrifuge cells to pellet and removed supernant. • Resuspended in growth media (50 μL/well) & pipetted thoroughly to break up clumps. • Setup for ˜100 wells/plate, therefore, VT=5 mL/plate @ […]. 1A. Some cells (S—) were allowed to attach for 24 hrs, serum starved for 48 hrs, and then followed with drug treatments. Test compound solution were prepared in regular corresponding media supplemented with serum. 2. Test Compound Preparation: Test compounds were solubilized in either DMSO or media and prepared at various stock concentrations. • All compounds were incubated at 37° C. for 30 minutes and vortexed. • (5 mM stocks of test compound were prepared for non-soluble compounds)
# • The 10 mM test compound stock was diluted to a concentration of 100× the final Cmax concentration. • Then the test compound stock is diluted 50-fold in media and/or second compound for a final Cmax concentration in the test compound plate. • The Cmax in the test compound plate (2% DMSO) is 2-fold higher than the final Cmax in the cell plate (60 uL titrations were 1:3). 4. Viability Assay: This assay was performed as follows: • Transfer 50 μL of test compound solution per well from the test compound plate onto the cell plate prepared in Step #1. • Mix the plate with treated cells by pipetting up and down three times with 200 μL multi-channel pipette. • Incubate the cells in 5% CO2 incubator @ 37° C. for 4 days. • Run the CellTiter-Glo™ Luminescent Cell Viability Assay.
# The results of this assay, given as EC50 values, indicate the concentration of test compound that inhibits tumor cell proliferation by 50%.
# Human DYRK1A = target: T2, Human DYRK1A (Homo sapiens, UniProt Q13627); assay: DYRK1A Kinase TR-FRET (IMAP-Tb) Assay; assay type: biochemical; conditions: TR-FRET (IMAP-Tb); ATP 70 μM; 37° C., 60 minutes; average of multiple runs; read-out: Enzyme IC50 (μM) DYRK1A
# T2 construct: purchased Invitrogen PV3997
# Source text: DYRK1A Kinase TR-FRET (IMAP-Tb) Assay
# The kinase TR-FRET (IMAP-Tb) assay uses a fluorescence labeled substrate peptide in the kinase reaction. Upon phosphorylation by the kinase, phosphopeptide is produced, which will be detected by the binding solution provided in IMAP TR-FRET binding kit. After the completion of the kinase reaction, the reaction will be stopped by adding the binding solution containing terbium tracer. This tracer is immobilized on the surface of the IMAP beads, which also contain metal ions on the beads that bind to the phospho-groups of the products. Thus the phosphorylated product of the reaction can enter into close proximity to the tracer, producing resonance energy transfer. Due to the long lifetime of terbium (Tb) fluorescence the detection can be run in time resolved mode, which virtually eliminates fluorescence interference from assay components or compounds.
# The TR-FRET signal measurement from this assay, given as an IC50 measurement, is a measure of a test compound's ability to interfere with the phosphorylation of the peptide substrate, that is it inhibits the phosphorylation of the substrate peptide by DYRK1A, and is thus a measure of the test compound's ability to inhibit the activity of DYRK1A.
# • 1. Human DYRK1A: from Invitrogen. Part #PV3997 • 2. Substrate Peptide: […] • 3. IMAP TR-FRET IPP Explorer Kit: from Molecular Devices. Part #R8157 • 4. Kinase Assay Buffer (KAB): 10 mM HEPES pH 7.0, 50 mM NaCl, 5 mM MgCl2, 1 mM DTT, 1 mM NaVO4, 200 μg/mL BSA (0.02%) • 5. Assay Plate: Remp polypropylene clear 384-well microplate. […] Detection Plate: Costa black 384-well microplate. […] Transfer 1.5 μL of 20× compound solution to each well of an assay plate. • 2. Add to each well 22.5 μL of KAB Buffer. • 3. Add to each well 3 μL of the solution of DYRK1A and ATP. […] Add to each well 3 μL of the substrate peptide. The assay concentration is 1.0 μM • 5. Incubate the assay plates at 37° C. for 60 minutes. • 6. Add 18 μL of Detection Solution (1:800 diluted Progress bead stock, 1:400 diluted Tb stock, 80% Buffer A, and 20% Buffer B) into each well of detection plates. • 7. Transfer 6 μL of assay solution from the assay plate to the detection plate. • 8. Shake detection plates for 30 minutes. • 9. Read plates in Envision with wavelength set at excitation 340 nm for Tb, emission 490 nm, and […].
# [2] = TR-FRET (IMAP-Tb), ATP 70 μM, 37° C., 60 minutes, average of multiple runs, read-out: Enzyme IC50 (μM) DYRK1B
# T1 sequence (Q9Y463 whole entry): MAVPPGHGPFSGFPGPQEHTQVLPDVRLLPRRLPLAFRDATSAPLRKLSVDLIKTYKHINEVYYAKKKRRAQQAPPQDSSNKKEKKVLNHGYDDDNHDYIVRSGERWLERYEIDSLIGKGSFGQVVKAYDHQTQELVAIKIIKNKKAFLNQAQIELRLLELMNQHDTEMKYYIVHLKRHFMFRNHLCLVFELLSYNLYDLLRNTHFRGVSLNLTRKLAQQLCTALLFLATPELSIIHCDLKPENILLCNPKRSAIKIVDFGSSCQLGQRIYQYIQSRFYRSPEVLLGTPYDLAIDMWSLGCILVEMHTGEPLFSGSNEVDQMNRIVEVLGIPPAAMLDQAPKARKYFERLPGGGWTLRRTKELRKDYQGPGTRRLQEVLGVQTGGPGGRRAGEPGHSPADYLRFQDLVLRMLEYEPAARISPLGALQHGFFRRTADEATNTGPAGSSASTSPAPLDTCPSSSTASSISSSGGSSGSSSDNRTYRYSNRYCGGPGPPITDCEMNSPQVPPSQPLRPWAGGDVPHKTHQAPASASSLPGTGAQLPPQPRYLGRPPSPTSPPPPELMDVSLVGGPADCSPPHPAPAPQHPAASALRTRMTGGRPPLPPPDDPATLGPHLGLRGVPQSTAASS
Structure (SMILES),IC50 (Human DYRK1B; [2]),EC50 [1],IC50 (Human DYRK1A),IC50 (Human DYRK1B)
"COC(=O)c1ccc(Cl)c(NC(=O)c2cc3cnc(OC)cc3[nH]c2=O)c1 [Example 30, 4-Chloro-3-[(7-methoxy-2-oxo-1,2-dihydro-[1,6]naphthyridine-3-carbonyl)-amino]-benzoic acid methyl ester]",0.119 µM,> 10 µM,0.135 µM,
"COc1cc2[nH]c(=O)c(C(=O)Nc3cc(C(=O)NCc4ccccc4)ccc3C)cc2cn1 [Example 33, 7-Methoxy-2-oxo-1,2-dihydro-[1,6]naphthyridine-3-carboxylic acid (5-benzylcarbamoyl-2-methyl-phenyl)-amide]",0.484 µM,1.47 µM,2.15 µM,
"COc1cc2[nH]c(=O)c(C(=O)Nc3cc(C(=O)NCc4cccs4)ccc3C)cc2cn1 [Example 37, 7-Methoxy-2-oxo-1,2-dihydro-[1,6]naphthyridine-3-carboxylic acid {2-methyl-5-[(thiophen-2-ylmethyl)-carbamoyl]-phenyl}-amide]",0.917 µM,0.47 µM,0.588 µM,
"COc1cc2[nH]c(=O)c(C(=O)Nc3cc(C(=O)NCc4ccsc4)ccc3C)cc2cn1 [Example 38, 7-Methoxy-2-oxo-1,2-dihydro-[1,6]naphthyridine-3-carboxylic acid {2-methyl-5-[(thiophen-3-ylmethyl)-carbamoyl]-phenyl}-amide]",0.424 µM,> 10 µM,0.266 µM,
"COc1cc2[nH]c(=O)c(C(=O)Nc3cc(C(=O)NCc4ccsc4)ccc3Cl)cc2cn1 [Example 43, 7-Methoxy-2-oxo-1,2-dihydro-[1,6]naphthyridine-3-carboxylic acid {2-chloro-5-[(thiophen-3-ylmethyl)-carbamoyl]-phenyl}-amide]",0.041 µM,> 10 µM,0.028 µM,
"COc1cc2[nH]c(=O)c(C(=O)Nc3cc(C(=O)NC(CN)c4ccccc4)ccc3Cl)cc2cn1 (stereo not shown) [Example 45, 7-Methoxy-2-oxo-1,2-dihydro-[1,6]naphthyridine-3-carboxylic acid [5-(2-amino-1-phenyl-ethylcarbamoyl)-2-chloro-phenyl]-amide; hydrochloride]",0.014 µM,0.177 µM,0.0115 µM,
"COC(=O)c1ccc(C)c(NC(=O)c2cc3cnc(NCC(O)CO)cc3[nH]c2=O)c1 (stereo not shown) [Example 49, 3-{[7-(2,3-Dihydroxy-propylamino)-2-oxo-1,2-dihydro-[1,6]naphthyridine-3-carbonyl]-amino}-4-methyl-benzoic acid methyl ester; hydrochloride]",0.537 µM,> 10 µM,0.3 µM,
"COc1cc2[nH]c(=O)c(C(=O)Nc3cc(C(=O)NC(CN)c4cccc(Cl)c4)ccc3Cl)cc2cn1 (stereo not shown) [Example 51, 7-Methoxy-2-oxo-1,2-dihydro-[1,6]naphthyridine-3-carboxylic acid {5-[2-amino-1-(3-chloro-phenyl)-ethylcarbamoyl]-2-chloro-phenyl}-amide; hydrochloride]",0.119 µM,0.373 µM,0.0198 µM,
"COc1cc2[nH]c(=O)c(C(=O)Nc3cc(C(=O)NC(CCN)c4ccsc4)ccc3Cl)cc2cn1 (stereo not shown) [Example 53, 7-Methoxy-2-oxo-1,2-dihydro-[1,6]naphthyridine-3-carboxylic acid [5-(3-amino-1-thiophen-3-yl-propylcarbamoyl)-2-chloro-phenyl]-amide]",,0.0524 µM,,0.0138 µM
"COc1cc2[nH]c(=O)c(C(=O)Nc3cc(C(=O)NC(CN)c4ccccc4)ccc3C)cc2cn1 (stereo not shown) [Example 55, 7-Methoxy-2-oxo-1,2-dihydro-[1,6]naphthyridine-3-carboxylic acid [5-(2-amino-1-phenyl-ethylcarbamoyl)-2-methyl-phenyl]-amide; hydrochloride]",0.0915 µM,0.68 µM,0.0506 µM,
"COc1cc2[nH]c(=O)c(C(=O)Nc3cc(C(=O)NC(CN)c4cccc(Cl)c4)ccc3C)cc2cn1 (stereo not shown) [Example 57, 7-Methoxy-2-oxo-1,2-dihydro-[1,6]naphthyridine-3-carboxylic acid {5-[2-amino-1-(3-chloro-phenyl)-ethylcarbamoyl]-2-methyl-phenyl}-amide; hydrochloride]",0.146 µM,0.496 µM,0.0512 µM,
"COc1cc2[nH]c(=O)c(C(=O)Nc3cc(C(=O)NC(CN)c4ccsc4)ccc3Cl)cc2cn1 (stereo not shown) [Example 71, 7-Methoxy-2-oxo-1,2-dihydro-[1,6]naphthyridine-3-carboxylic acid [5-(2-amino-1-thiophen-3-yl-ethylcarbamoyl)-2-chloro-phenyl]-amide; hydrochloride]",,0.137 µM,,< 0.0046 µM
